# US12472214B2, “Bacterial strains, the compositions thereof and use thereof in a method for the treatment of vitamin D deficiency, and disorders associated therewith” (priority 2020, dated 2025)
# Legend:
# vitamin D receptor VDR = experiment: In vivo murine study: quantification of vitamin D receptor mRNA in ileal mucosa (quantitative PCR); design: species or system mice (Cd1); conditions: mice
# Method: (§1) Mice were sacrificed 3 hours after the end of administration following fluorane anaesthesia and subsequent collection of blood by means of cardiac puncture and removal of the terminal ileum. The blood was centrifuged for the separation of serum which was then frozen until the subsequent dose of vitamin D3, in the form of 25-hydroxy-vitamin D (abbreviated as 25(OH)2D or 25(OH)D). The terminal ileum was first washed with PBS and then subjected to the collection of mucosa and the subsequent freezing in liquid nitrogen. mRNA was then extracted for the quantification of the expression of the vitamin D receptor at mucosal level.
# The terminal ileum was first washed with PBS and then subjected to the collection of mucosa and the subsequent freezing in liquid nitrogen. mRNA was then extracted for the quantification of the expression of the vitamin D receptor at mucosal level. From an operational point of view, total RNA extraction from the mucosa was performed first, then a 30 ng aliquot of total RNA was reverse transcribed to cDNA and then subjected to a quantitative PCR with primers for the vitamin D receptor VDR (described by Wu et al. 2010). Below is the summary of the sequence of primers: […]
# RT-PCR analyses were also conducted using an “absolute” negative control and a housekeeping gene to normalise the results obtained (e.g. β-actin).
# [1] = In vivo murine study: 25(OH)D in serum by ELISA (bioavailability of vitamin D); design: species or system mice (Cd1); conditions: mice; one-week daily administration (groups 3, 5, 6)
# Method: Mice (8-week old adult male Cd1) were enclosure-adapted and fed on a conventional diet. Mice were housed in cages and kept in a temperature-controlled environment (22±2° C.) with a 12-hour light/dark cycle with food for regular chow and tap water supplied ad libitum. After one week of acclimatisation, the animals were then randomly divided into 6 experimental groups of 6 mice each and each group was randomly assigned to one of the scheduled treatments (Table 1).
# The strain Lactobacillus paracasei DG® CNCM I-1572 (in short, L paracasei DG®) was sub-cultured in MRS agar and a single colony was inoculated into culture broth and incubated for 18 hours at 37° C. under microaerophilic conditions. […] The optical density (OD 600 nm) was then measured and the suspension was diluted to OD=1.00. […] The decimal count of aliquots on selective medium allowed to quantify the live cell concentration equal to 1.6×10^9 CFU/ml of suspension (2.4×10^8 CFU/aliquot). […]
# as §1, with “The blood was centrifuged for the separation of serum which was then frozen until the subsequent dose of vitamin D3, in the form of 25-hydroxy-vitamin D (abbreviated as 25(OH)2D or 25(OH)D).” left out, “level. […]” for “level.”
smiles,measurement,setting,value
"C=C1CC[C@H](O)C/C1=C/C=C1\CCC[C@]2(C)[C@@H]([C@H](C)CCCC(C)C)CC[C@@H]12 [vitamin D3, cholecalciferol]",vitamin D receptor mRNA expression level in ileal mucosa versus treatment-free control,"vitamin D receptor VDR; one-week daily administration (groups 3, 5, 6)",even more marked decrease
same,vitamin D receptor mRNA expression level in ileal mucosa versus treatment-free control,vitamin D receptor VDR; vitamin D3 single dose (groups 2 and 4),statistically significant decrease
same,change in serum levels of 25(OH)D versus treatment-free control group (statistical significance),[1],did not generate any statistically significant change
